Test results as given in PubChem BioAssay (NCI).
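These data come from cells grown in 96-well plates and exposed to compound for 48 hours at five concentrations. TGI: total growth inhibition.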

Tests used:
Assay in all cases: NCI anticancer screen, dose series, 48 h
SF-539 CNS = tested on: SF-539 CNS
MDA-MB-435 = tested on: MDA-MB-435
T-47D breast = tested on: T-47D breast
SK-MEL-5 melanoma = tested on: SK-MEL-5 melanoma
UACC-62 melanoma = tested on: UACC-62 melanoma
HCC-2998 colon = tested on: HCC-2998 colon
OVCAR-8 ovarian = tested on: OVCAR-8 ovarian
OVCAR-4 ovarian = tested on: OVCAR-4 ovarian
786-0 renal = tested on: 786-0 renal
SK-MEL-2 melanoma = tested on: SK-MEL-2 melanoma
NCI-H23 lung = tested on: NCI-H23 lung
NCI-H460 lung = tested on: NCI-H460 lung
SK-OV-3 ovarian = tested on: SK-OV-3 ovarian
SNB-19 CNS = tested on: SNB-19 CNS
RPMI-8226 leukemia = tested on: RPMI-8226 leukemia
EKVX NSCLC = tested on: EKVX NSCLC
COLO 205 colon = tested on: COLO 205 colon
SK-MEL-28 melanoma = tested on: SK-MEL-28 melanoma
HT29 colon = tested on: HT29 colon
UO-31 renal = tested on: UO-31 renal
CAKI-1 renal = tested on: CAKI-1 renal
RXF 393 renal = tested on: RXF 393 renal
MOLT-4 leukemia = tested on: MOLT-4 leukemia
KM12 colon = tested on: KM12 colon
K-562 leukemia = tested on: K-562 leukemia
HCT-15 colon = tested on: HCT-15 colon
SF-268 CNS = tested on: SF-268 CNS
M14 melanoma = tested on: M14 melanoma
MDA-N = tested on: MDA-N
SF-295 CNS = tested on: SF-295 CNS
HOP-62 NSCLC = tested on: HOP-62 NSCLC
OVCAR-5 ovarian = tested on: OVCAR-5 ovarian
HL-60(TB) leukemia = tested on: HL-60(TB) leukemia
SW-620 colon = tested on: SW-620 colon
PC-3 prostate = tested on: PC-3 prostate
LOX IMVI melanoma = tested on: LOX IMVI melanoma
IGROV1 ovarian = tested on: IGROV1 ovarian
A498 renal = tested on: A498 renal
NCI/ADR-RES ovarian = tested on: NCI/ADR-RES ovarian
HS 578T breast = tested on: HS 578T breast
HOP-92 NSCLC = tested on: HOP-92 NSCLC
CCRF-CEM leukemia = tested on: CCRF-CEM leukemia
MDA-MB-231 breast = tested on: MDA-MB-231 breast
UACC-257 melanoma = tested on: UACC-257 melanoma
DU-145 prostate = tested on: DU-145 prostate
U251 CNS = tested on: U251 CNS
NCI-H226 lung = tested on: NCI-H226 lung
BT-549 breast = tested on: BT-549 breast
MCF7 breast = tested on: MCF7 breast
ACHN renal = tested on: ACHN renal
A549 NSCLC = tested on: A549 NSCLC
HCT-116 colon = tested on: HCT-116 colon
MALME-3M melanoma = tested on: MALME-3M melanoma
OVCAR-3 ovarian = tested on: OVCAR-3 ovarian
SR leukemia = tested on: SR leukemia
SN12C renal = tested on: SN12C renal
TK-10 renal = tested on: TK-10 renal
NCI-H522 lung = tested on: NCI-H522 lung
SNB-75 CNS = tested on: SNB-75 CNS

O=C(O)C#Cc1ccc([N+](=O)[O-])cc1
TGI (SF-539 CNS): > 100 µM | TGI (MDA-MB-435): > 100 µM | TGI (T-47D breast): > 100 µM | TGI (SK-MEL-5 melanoma): > 100 µM | TGI (UACC-62 melanoma): > 100 µM | TGI (HCC-2998 colon): > 100 µM | TGI (OVCAR-8 ovarian): > 100 µM | TGI (OVCAR-4 ovarian): > 100 µM | TGI (786-0 renal): > 100 µM | TGI (SK-MEL-2 melanoma): > 100 µM | TGI (NCI-H23 lung): > 100 µM | TGI (NCI-H460 lung): > 100 µM | TGI (SK-OV-3 ovarian): > 100 µM | TGI (SNB-19 CNS): > 100 µM | TGI (RPMI-8226 leukemia): > 100 µM | TGI (EKVX NSCLC): > 100 µM | TGI (COLO 205 colon): > 100 µM | TGI (SK-MEL-28 melanoma): > 100 µM | TGI (HT29 colon): > 100 µM | TGI (UO-31 renal): > 100 µM | TGI (CAKI-1 renal): > 100 µM | TGI (RXF 393 renal): > 100 µM | TGI (MOLT-4 leukemia): > 100 µM | TGI (KM12 colon): > 100 µM | TGI (K-562 leukemia): > 100 µM | TGI (HCT-15 colon): > 100 µM | TGI (SF-268 CNS): > 100 µM | TGI (M14 melanoma): > 100 µM | TGI (MDA-N): > 100 µM | TGI (SF-295 CNS): > 100 µM | TGI (HOP-62 NSCLC): > 100 µM | TGI (OVCAR-5 ovarian): > 100 µM | TGI (HL-60(TB) leukemia): > 100 µM | TGI (SW-620 colon): > 100 µM | TGI (PC-3 prostate): > 100 µM | TGI (LOX IMVI melanoma): > 100 µM | TGI (IGROV1 ovarian): > 100 µM | TGI (A498 renal): > 100 µM | TGI (NCI/ADR-RES ovarian): > 100 µM | TGI (HS 578T breast): > 100 µM | TGI (HOP-92 NSCLC): > 100 µM | TGI (CCRF-CEM leukemia): > 100 µM | TGI (MDA-MB-231 breast): > 100 µM | TGI (UACC-257 melanoma): > 100 µM | TGI (DU-145 prostate): > 100 µM | TGI (U251 CNS): > 100 µM | TGI (NCI-H226 lung): > 100 µM | TGI (BT-549 breast): > 100 µM | TGI (MCF7 breast): > 100 µM | TGI (ACHN renal): > 100 µM | TGI (A549 NSCLC): > 100 µM | TGI (HCT-116 colon): > 100 µM | TGI (MALME-3M melanoma): > 100 µM | TGI (OVCAR-3 ovarian): > 100 µM | TGI (SR leukemia): > 100 µM | TGI (SN12C renal): > 100 µM | TGI (TK-10 renal): > 100 µM

CCOC(=O)c1nc2ccc(C(F)(F)F)cc2nc1Nc1ccc(OC)c(OC)c1
TGI (SF-539 CNS): > 100 µM | TGI (MDA-MB-435): > 100 µM | TGI (T-47D breast): > 100 µM | TGI (SK-MEL-5 melanoma): > 100 µM | TGI (UACC-62 melanoma): > 100 µM | TGI (HCC-2998 colon): > 100 µM | TGI (OVCAR-8 ovarian): > 100 µM | TGI (786-0 renal): > 100 µM | TGI (NCI-H23 lung): > 100 µM | TGI (NCI-H460 lung): > 100 µM | TGI (SK-OV-3 ovarian): > 100 µM | TGI (SNB-19 CNS): > 100 µM | TGI (RPMI-8226 leukemia): > 100 µM | TGI (NCI-H522 lung): > 100 µM | TGI (EKVX NSCLC): > 100 µM | TGI (COLO 205 colon): > 100 µM | TGI (SK-MEL-28 melanoma): > 100 µM | TGI (HT29 colon): > 100 µM | TGI (UO-31 renal): > 100 µM | TGI (CAKI-1 renal): 86.5 µM | TGI (RXF 393 renal): > 100 µM | TGI (MOLT-4 leukemia): > 100 µM | TGI (KM12 colon): > 100 µM | TGI (K-562 leukemia): > 100 µM | TGI (HCT-15 colon): > 100 µM | TGI (SF-268 CNS): > 100 µM | TGI (M14 melanoma): > 100 µM | TGI (MDA-N): > 100 µM | TGI (SF-295 CNS): > 100 µM | TGI (HOP-62 NSCLC): 29 µM | TGI (OVCAR-5 ovarian): > 100 µM | TGI (HL-60(TB) leukemia): > 100 µM | TGI (SW-620 colon): > 100 µM | TGI (PC-3 prostate): > 100 µM | TGI (LOX IMVI melanoma): > 100 µM | TGI (IGROV1 ovarian): > 100 µM | TGI (A498 renal): > 100 µM | TGI (NCI/ADR-RES ovarian): > 100 µM | TGI (HS 578T breast): > 100 µM | TGI (HOP-92 NSCLC): > 100 µM | TGI (CCRF-CEM leukemia): > 100 µM | TGI (MDA-MB-231 breast): > 100 µM | TGI (UACC-257 melanoma): > 100 µM | TGI (DU-145 prostate): > 100 µM | TGI (NCI-H226 lung): > 100 µM | TGI (BT-549 breast): > 100 µM | TGI (MCF7 breast): > 100 µM | TGI (ACHN renal): > 100 µM | TGI (A549 NSCLC): > 100 µM | TGI (SNB-75 CNS): 67.4 µM | TGI (HCT-116 colon): > 100 µM | TGI (MALME-3M melanoma): > 100 µM | TGI (OVCAR-3 ovarian): > 100 µM | TGI (SR leukemia): > 100 µM | TGI (SN12C renal): > 100 µM | TGI (TK-10 renal): > 100 µM
